{"source": "paper PMC5572576", "about": "(The Lancet. Oncology, 2017)", "key": {"[1]": {"test_system": "c-Kit", "conditions": "cell-based assays; cited from earlier work"}, "[2]": {"target": "anaplastic lymphoma kinase (ALK)", "conditions": "panel of 78 kinases; cited from earlier work"}, "[3]": {"test_system": "FLT3-ITD receptors in Molm14 cells", "experiment": "Ex vivo FLT3 plasma inhibitory activity", "type": "cell-based", "conditions": "by Day 8, majority of patients receiving ≥80 mg"}, "[4]": {"target": "leukocyte receptor tyrosine kinase (LTK)", "conditions": "panel of 78 kinases; cited from earlier work"}, "[5]": {"target": "AXL", "conditions": "panel of 78 kinases; cited from earlier work"}, "[6]": {"test_system": "FLT3", "conditions": "cell-based assays; cited from earlier work"}, "[7]": {"test_system": "patients with R/R AML", "experiment": "Phase 1/2 study, antileukemic response", "type": "in vivo, human", "conditions": "for Median overall survival / Median response duration: (95% CI)"}, "[8]": {"conditions": "FLT3mut+ receiving ≥80mg/d (n=169)"}}, "note": "pIC50: −log10 of the molar value. Values joined by “and” are separate entries in the source; they are usually repeats but may differ in a detail not shown here. Equal entries are not always repeated."}
{"smiles": "CCc1nc(C(N)=O)c(Nc2ccc(N3CCC(N4CCN(C)CC4)CC3)c(OC)c2)nc1NC1CCOCC1", "note": "[gilteritinib]", "values": [{"measurement": "pIC50", "setting": "[1]", "result": 6.99}, {"measurement": "kinase inhibition", "setting": "[2]", "result": "strong inhibitor"}, {"measurement": "FLT3 phosphorylation inhibition", "setting": "[3]", "result": "≥ 90", "unit": "%"}, {"measurement": "kinase inhibition", "setting": "[4]", "result": "strong inhibitor"}, {"measurement": "kinase inhibition", "setting": "[5]", "result": "strong inhibitor"}, {"measurement": "pIC50", "setting": "[6]", "result": "[…]"}, {"measurement": "CRc", "setting": "[7]; FAS (n=249)", "result": "75 (30% [25, 36]) n (% [95% CI])"}, {"measurement": "ORR", "setting": "[7]; FAS (n=249)", "result": "100 (40% [34, 47]) n (% [95% CI])"}, {"measurement": "Median overall survival", "setting": "[7]; FAS (n=249)", "result": "25 (20, 30) weeks"}, {"measurement": "Median response duration", "setting": "[7]; FAS (n=249)", "result": "[…]"}, {"measurement": "CRc", "setting": "[7]; FLT3WT (n=58)", "result": "5 (9% [3, 19]) n (% [95% CI])"}, {"measurement": "Median overall survival", "setting": "[7]; FLT3WT (n=58)", "result": "17 (11, 21) weeks"}, {"measurement": "Median response duration", "setting": "[7]; FLT3WT (n=58)", "result": "[…]"}, {"measurement": "CR", "setting": "[7]; FLT3mut+ all patients (n=191)", "result": "18 (9% [6, 15]) n (% [95% CI])"}, {"measurement": "CRc", "setting": "[7]; FLT3mut+ all patients (n=191)", "result": "70 (37% [30, 44]) n (% [95% CI])"}, {"measurement": "CRi", "setting": "[7]; FLT3mut+ all patients (n=191)", "result": "42 (22% [16, 29]) n (% [95% CI])"}, {"measurement": "CRp", "setting": "[7]; FLT3mut+ all patients (n=191)", "result": "10 (5% [3, 9]) n (% [95% CI])"}, {"measurement": "ORR", "setting": "[7]; FLT3mut+ all patients (n=191)", "result": "93 (49% [41, 56]) n (% [95% CI])"}, {"measurement": "PR", "setting": "[7]; FLT3mut+ all patients (n=191)", "result": "23 (12% [8, 18]) n (% [95% CI])"}, {"measurement": "Median overall survival", "setting": "[7]; FLT3mut+ all patients (n=191)", "result": "30 (23, 33) weeks"}, {"measurement": "Median response duration", "setting": "[7]; FLT3mut+ all patients (n=191)", "result": "[…]"}, {"measurement": "Transplant rate", "setting": "[7]; FLT3mut+ receiving ≥80 mg/d", "result": 19, "unit": "%"}, {"measurement": "CR", "setting": "[7]; [8]", "result": "18 (11% [6, 16]) n (% [95% CI])"}, {"measurement": "CRi", "setting": "[7]; [8]", "result": "41 (24% [18, 31]) n (% [95% CI])"}, {"measurement": "CRp", "setting": "[7]; [8]", "result": "10 (6% [3, 11]) n (% [95% CI])"}, {"measurement": "ORR", "setting": "[7]; [8]", "result": "88 (52% [44, 60]) n (% [95% CI])"}, {"measurement": "PR", "setting": "[7]; [8]", "result": "19 (11% [7, 17]) n (% [95% CI])"}, {"measurement": "Median overall survival", "setting": "[7]; [8]", "result": "31 weeks and 31 (24, 59) weeks"}, {"measurement": "Median response duration", "setting": "[7]; [8]", "result": "[…]"}, {"measurement": "Median OS", "setting": "[7]; FLT3mut+ responders who underwent HSCT (n=32)", "result": 47, "unit": "weeks"}, {"measurement": "Transplant rate", "setting": "[7]; FLT3mut+ who achieved PR or better", "result": 34, "unit": "%"}, {"measurement": "Transplant rate", "setting": "[7]; FLT3mut+ with CRc and no prior transplant (n=47)", "result": 47, "unit": "%"}, {"measurement": "Transplant rate", "setting": "[7]; entire FLT3mut+ population", "result": 19, "unit": "%"}]}
